PubChem BioAssay AID1963829 (Molecular Pharmacology Branch, DTP, NCI, 2024)

system: 935938-334-R-J1-PDC complex spheroid viability; experiment: Anticancer human tumor 935938-334-R-J1-PDC patient-derived small intestine adenocarcinoma cell line growth inhibition [POLQ]; conditions: second compound 0.1 µM; first compound 3.16 µM; stronger effect = lower value
Procedure: Multicellular complex tumor spheroid response to Polymerase (POL) inhibitors (novobiocin, ART-558, RP6685) in combination with a variety of drugs and investigational agents in selected tumor cell lines
The POL inhibitors (novobiocin, ART-558, and RP6685) were evaluated both individually and in combination with standard of care and investigational anticancer small molecules within a complex spheroid model of solid tumors. . Complex spheroids include a stromal component modeled by human endothelial cells (HUVEC) and fibroblasts modeled by human mesenchymal stem cells (MSCs). The concentration ranges selected for each drug and investigational agent were based upon clinically achievable concentrations if the clinical Cmax of the agent was known.
Compounds. The drugs and investigational agents: novobiocin (NSC847541), ART-558 (NSC835418), RP-6685 (NSC848927), peposertib (NSC802822), ceralasertib (NSC780249), elimusertib (NSC800525), camonsertib (NSC841442), AZD-1390 (NSC803789), olaparib (NSC753686), talazoparib (NSC767125), rucaparib (NSC756644), sotorasib (NSC818433), MRTX-1133 (NSC836407), SN-38 (NSC673596), topotecan (NSC609699), epotoside (NSC141540), doxorubicin (NSC123127), gemcitabine (NSC613327), 5-fluorouracil (NSC19893), paclitaxel (NSC125973), vemurafenib (NSC761431), MSA-2 (NSC828583), SN-011 (NSC837082), adavosertib (NSC754352), prexasertib (NSC758257), carboplatin (NSC241240) and oxaliplatin (NSC266046), were obtained from the National Cancer Institute (NCI) Developmental Therapeutics Program Chemical Repository (21). The FDA-approved anticancer drug set is available from the Developmental Therapeutics Program at https://dtp.cancer.gov/organization/dscb/obtaining/. […] The stock solutions were prepared in dimethyl sulfoxide (DMSO, Sigma-Aldrich, St. Louis, MO, cat. D2650), except for the platinum compounds which were prepared in saline (Quality Biological, Gaithersburg, MD, cat. 114-055-101), at 800-fold the tested concentration and stored at -70 degrees C prior to their use. All drugs and investigational agents were tested over a range starting from a high concentration at or near the clinical Cmax and decreasing in half-log increments. If the clinical Cmax for an agent had not been determined, the highest concentration tested was 10 microM, except for SN-38, which was tested at a high concentration of 1 microM.
Cell Culture. All cells were maintained in an incubator at 37 degrees C and 5% CO2 with 95% humidity. The PDC lines were cultured according to standard operating procedures established by the NCI PDMR (https://pdmr.cancer.gov). Table 3 of the manuscript, lists the cell lines along with the number of the three cell types plated to form the mct-spheroids and media for tumor cell growth. After thawing, all PDC lines, except 997537-175-T-J1-PDC and 415267-285-R-J2-PDC, were cultured in Matrigel-coated flasks prepared with a working solution of 1X Ham's F-12 nutrient mix, without supplementation (Thermo Fisher Scientific, cat. 11765054), 100 U/mL penicillin-streptomycin (Thermo Fisher Scientific, cat. 15140122), and 2.5% Matrigel (Corning Inc., Corning, NY, cat. 354248) for the first three passages. The two PDC lines 997537-175-T-J1-PDC and 415267-285-R-J2-PDC were cultured on uncoated flasks. The 857933-349-R-J2-PDC line was cultured in 6C/Colon 1B media containing advanced DMEM/F-12 (Thermo Fisher Scientific, cat. 12634028), 10 mM HEPES (Thermo Fisher Scientific, cat. 15630080), 1X GlutaMAX supplement (Thermo Fisher Scientific, cat. 35050061), 0.1 mg/mL primocin (InvivoGen, San Diego, CA, cat. ant-pm-2), 10% defined fetal bovine serum, heat inactivated (HyClone Laboratories Inc., Logan, UT, cat. SH30070.03HI), 50% L-WRN conditioned media (ATCC, cat. CRL-3276), 1.25 mM N-Acetyl-L-cysteine (Sigma-Aldrich, cat. A9165), 10 mM nicotinamide (Sigma-Aldrich, cat. N0636), 1X B-27 supplement (Thermo Fisher Scientific, cat. 17504044), 1X N-2 supplement (Thermo Fisher Scientific, cat. […]
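Note: spheroids exposed to drugs for seven days before viability read; 100% = DMSO vehicle control wells.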

SMILES | viability, T/C [%]
CC1COCCN1c1cc(-c2ccnn2C)c2ccnc(-c3ccn[nH]3)c2n1 (centres undefined) + Cc1cccc(N(C)C(=O)C2C(O)CCN2c2nc(C)cc(C(F)(F)F)c2C#N)c1 | 18.7
COc1cccc2c1C(=O)c1c(O)c3c(c(O)c1C2=O)CC(O)(C(=O)CO)CC3OC1CC(N)C(O)C(C)O1 (centres undefined) + Nc1ccc(C#CCN(C(=O)Cc2ncc(C(F)(F)F)cc2C(F)(F)F)c2ccc(F)cc2)nn1 | 7.02
O=c1[nH]cc(F)c(=O)[nH]1 + Nc1ccc(C#CCN(C(=O)Cc2ncc(C(F)(F)F)cc2C(F)(F)F)c2ccc(F)cc2)nn1 | 60.7

same assay, conditions: second compound 0.1 µM; first compound 10 µM; stronger effect = lower value

SMILES | viability, T/C [%]
CC1COCCN1c1cc(-c2ccnn2C)c2ccnc(-c3ccn[nH]3)c2n1 (centres undefined) + Cc1cccc(N(C)C(=O)C2C(O)CCN2c2nc(C)cc(C(F)(F)F)c2C#N)c1 | 23.3
COc1cccc2c1C(=O)c1c(O)c3c(c(O)c1C2=O)CC(O)(C(=O)CO)CC3OC1CC(N)C(O)C(C)O1 (centres undefined) + Nc1ccc(C#CCN(C(=O)Cc2ncc(C(F)(F)F)cc2C(F)(F)F)c2ccc(F)cc2)nn1 | 3.54
O=c1[nH]cc(F)c(=O)[nH]1 + Nc1ccc(C#CCN(C(=O)Cc2ncc(C(F)(F)F)cc2C(F)(F)F)c2ccc(F)cc2)nn1 | 53.4

same assay, conditions: second compound 0.316 µM; first compound 0.0316 µM; stronger effect = lower value

SMILES | viability, T/C [%]
CC1COCCN1c1cc(-c2ccnn2C)c2ccnc(-c3ccn[nH]3)c2n1 (centres undefined) + Cc1cccc(N(C)C(=O)C2C(O)CCN2c2nc(C)cc(C(F)(F)F)c2C#N)c1 | 79.2
COc1cccc2c1C(=O)c1c(O)c3c(c(O)c1C2=O)CC(O)(C(=O)CO)CC3OC1CC(N)C(O)C(C)O1 (centres undefined) + Nc1ccc(C#CCN(C(=O)Cc2ncc(C(F)(F)F)cc2C(F)(F)F)c2ccc(F)cc2)nn1 | 49.8
O=c1[nH]cc(F)c(=O)[nH]1 + Nc1ccc(C#CCN(C(=O)Cc2ncc(C(F)(F)F)cc2C(F)(F)F)c2ccc(F)cc2)nn1 | 81.5

same assay, conditions: second compound 0.316 µM; first compound 0.1 µM; stronger effect = lower value

SMILES | viability, T/C [%]
CC1COCCN1c1cc(-c2ccnn2C)c2ccnc(-c3ccn[nH]3)c2n1 (centres undefined) + Cc1cccc(N(C)C(=O)C2C(O)CCN2c2nc(C)cc(C(F)(F)F)c2C#N)c1 | 51.7
COc1cccc2c1C(=O)c1c(O)c3c(c(O)c1C2=O)CC(O)(C(=O)CO)CC3OC1CC(N)C(O)C(C)O1 (centres undefined) + Nc1ccc(C#CCN(C(=O)Cc2ncc(C(F)(F)F)cc2C(F)(F)F)c2ccc(F)cc2)nn1 | 32.1
O=c1[nH]cc(F)c(=O)[nH]1 + Nc1ccc(C#CCN(C(=O)Cc2ncc(C(F)(F)F)cc2C(F)(F)F)c2ccc(F)cc2)nn1 | 74.1

same assay, conditions: second compound 0.316 µM; first compound 0.316 µM; stronger effect = lower value

SMILES | viability, T/C [%]
CC1COCCN1c1cc(-c2ccnn2C)c2ccnc(-c3ccn[nH]3)c2n1 (centres undefined) + Cc1cccc(N(C)C(=O)C2C(O)CCN2c2nc(C)cc(C(F)(F)F)c2C#N)c1 | 23.6
COc1cccc2c1C(=O)c1c(O)c3c(c(O)c1C2=O)CC(O)(C(=O)CO)CC3OC1CC(N)C(O)C(C)O1 (centres undefined) + Nc1ccc(C#CCN(C(=O)Cc2ncc(C(F)(F)F)cc2C(F)(F)F)c2ccc(F)cc2)nn1 | 30.9
O=c1[nH]cc(F)c(=O)[nH]1 + Nc1ccc(C#CCN(C(=O)Cc2ncc(C(F)(F)F)cc2C(F)(F)F)c2ccc(F)cc2)nn1 | 88.9

same assay, conditions: second compound 0.316 µM; first compound 1 µM; stronger effect = lower value

SMILES | viability, T/C [%]
CC1COCCN1c1cc(-c2ccnn2C)c2ccnc(-c3ccn[nH]3)c2n1 (centres undefined) + Cc1cccc(N(C)C(=O)C2C(O)CCN2c2nc(C)cc(C(F)(F)F)c2C#N)c1 | 17.7
COc1cccc2c1C(=O)c1c(O)c3c(c(O)c1C2=O)CC(O)(C(=O)CO)CC3OC1CC(N)C(O)C(C)O1 (centres undefined) + Nc1ccc(C#CCN(C(=O)Cc2ncc(C(F)(F)F)cc2C(F)(F)F)c2ccc(F)cc2)nn1 | 23.7
O=c1[nH]cc(F)c(=O)[nH]1 + Nc1ccc(C#CCN(C(=O)Cc2ncc(C(F)(F)F)cc2C(F)(F)F)c2ccc(F)cc2)nn1 | 68.4

same assay, conditions: second compound 0.316 µM; first compound 3.16 µM; stronger effect = lower value

SMILES | viability, T/C [%]
CC1COCCN1c1cc(-c2ccnn2C)c2ccnc(-c3ccn[nH]3)c2n1 (centres undefined) + Cc1cccc(N(C)C(=O)C2C(O)CCN2c2nc(C)cc(C(F)(F)F)c2C#N)c1 | 18.9
